Reference: article PMC6273344, “Biochemical Characteristics of Three Laccase Isoforms from the Basidiomycete Pleurotus nebrodensis” (Molecules, 2015)
Structures can show the parent of a compound that is named as a salt.

How the values were obtained:
Settings in all cases: McIlvaine buffer at optimum pH (3.0); ABTS 125-5000 uM; O2 as co-substrate
[1] = tested on: Lac2
[2] = tested on: Lac1
[3] = tested on: Lac3

CCn1c(=NN=c2sc3cc(S(=O)(=O)O)ccc3n2CC)sc2cc(S(=O)(=O)O)ccc21 [ABTS, 2,2′-azino-bis(3-ethylbenzothiazoline-6-sulfonic acid) diammonium salt]
Km [1]: 550 µM | Km [2]: 160 µM | Km [3]: 104 µM
